How the values were obtained:
[1] = test system: gastric mucosa; test: PD: Gastric Mucosal Integrity Test; assay type: in vivo, rat (male CDj:SD); parameters: key: 5: Same as the control with no recognizable damage at all.; 4: Though a slight PD-decreasing tendency suggesting a slight possibility of mucosal damage is found, there is no problem.; 3: Though a weak decrease in PD and a possibility of a weak mucosal damage is recognized, there is no substantial problem.; 2: Medium degree of decrease in PD is found and a mucosal damage is recognized.; 1: Heavy degree of decrease in PD is found and a remarkable mucosal damage is recognized; conditions: rat, 100 mg/kg into chamber, 60 minutes
Protocol: PD: Gastric Mucosal Integrity Test
In this case, since the sample compound has a necrotizing effect, it is inappropriate as an anti-ulcer medicament.
Therefore, the gastric mucosal potential difference (PD), which reflects the integrity of the gastric mucosa, is measured so as to confirm that the sample compound has no damaging effect on gastric mucosa, which is toxicity at gastric mucosal level.
Male CDj:SD rats (7 to 8-week-old) were fasted overnight, but allowed free access to water, and then, under urethane anesthesia (1.25 g/kg, i.p.), fixed to a cork board on its back. The abdomen of each rat was incised, and a small incision was made in the forestomach. Then, the inside of the stomach was washed with physiological saline heated at 37° C. From the forestomach, along the greater curvature thereof, the stomach was incised without damaging blood vessels. After the height of the cork board was adjusted on a jack, the stomach was mounted on ex vivo chamber. The area of the gastric mucosa exposed to the inside of this chamber was 2.5 cm^2. The inside of the chamber was perfused with physiological saline warmed at 37° C. by micro tube pump. By using an agar bridge containing 3M KCl, the potential difference between the chamber and the abdominal cavity was measured by a PD meter. Here, the rectal temperature was measured to control the body temperature during the experiment. […] To a control, the vehicle was administered.
The change in PD during 60 minutes after the administration of 100 mg/kg of the sample compound was collectively studied and, with reference to the positive control, classified into 5 levels as follows:
5: Same as the control with no recognizable damage at all.
3: Though a weak decrease in PD and a possibility of a weak mucosal damage is recognized, there is no substantial problem.
2: Medium degree of decrease in PD is found and a mucosal damage is recognized.
1: Heavy degree of decrease in PD is found and a remarkable mucosal damage is recognized.

[2] = test system: isolated gastric fundic gland; test: CAP: Acid Secretion Inhibition Test In Vitro ([14C]-aminopyrine uptake test); assay type: cell-based, Japanese White rabbit; conditions: Oryctolagus cuniculus, 40 min, 10^-5 M, histamine 10^-5 M, 37° C., read-out: CAP: acid secretion inhibitory rate
Protocol: CAP: Acid Secretion Inhibition Test In Vitro
The acid secretion inhibitory activity in a cell level is studied. It can also be used for studying the mechanism of the effect. […]
ii-a) Preparation of isolated gastric fundus gland suspension
First, an isolated gastric fundic gland sample was prepared. Namely, a male Japanese White rabbit (2.5 to 3 kg) was anesthetized to death with Nembutal™ and then the abdomen was incised. Immediately thereafter, the stomach was removed and, after its pyloric and cardiac antrum were severed, incised along its greater curvature into two sheets. The gastric contents adhering to the mucosal surface was washed out with ice-cooled PBS (-) and then carefully washed therein. The gastric wall was spread on a cork board with its mucosal surface facing up and the feed and mucus thereon were completely removed with sterile gauze. The mucosa was separated therefrom by a spatula and then collected in ice-cooled PBS (-). After being washed twice with PBS (-), the mucosa was minced into 2-3 mm^3 pieces by scissors. These pieces were further washed twice with a nutrient solution. The nutrient solution comprises 132.4 mM of NaCl, 5.4 mM of KCl, 5 mM of Na2 HPO4. 12H2 O, 1 mM of NaH2 PO4. 2H2 O, 1.2 mM of MgSO4, 1 mM of CaCl 2, 25 mM of HEPES, 2 mg/ml of glucose, and 1 mg/ml of BSA. Into 70 ml of the nutrient solution containing 1 mg/ml of collagenase, minced mucosal pieces were dispersed and intensely stirred in a conical flask with a stirrer at 37° C. for 40 to 60 minutes. During this period, 100% O2 was sprayed on the nutrient solution surface and the pH was appropriately measured such that it was immediately adjusted to pH 7.4, when the value was therebelow, with a base. The nutrient solution was added to the reaction solution so as to attain the total amount of about 200 ml. After being filtered through a mesh, the suspension was divisionally introduced into 50 ml centrifuge tubes and left for 15 minutes such that gastric fundic gland was deposited. The supernatant was repeatedly removed by an aspirator, dispersed in the nutrient solution, and then left such that the gastric fundic gland was washed three times. At this time, without using a pipette, the suspension was alternately introduced into two centrifuge tubes so as to effect dispersion. The number of cells was counted under microscope and adjusted to 1.6×10^6 cells/ml. […]
ii-b) [^14 C]-aminopyrine uptake test
Then, [^14 C]-aminopyrine uptake test was performed. After an Eppendorf tube was weighed, 10 μl (final concentration: 10^-5 M) of histamine dissolved in the above-mentioned nutrient solution, 10 μl (final concentration: 10^-5 M) of the test compound dissolved in DMSO, and 10 μl (final concentration: 0.05 μCi/ml) of [^14 C]-aminopyrine diluted with the nutrient solution were introduced therein and then 970 μl of the isolated gastric fundic gland suspension prepared above was added thereto. Subsequently, this mixture was shaken at 37° C. for 40 minutes at 125 cycles/minute. After being centrifuged for 30 minutes, 200 μl of its supernatant was collected into a mini-vial, while the rest was removed by an aspirator. The gland pellet was completely dried as the tube with its lid being opened was kept for one night in a drying oven at 80° C. and then the lid was closed and the weight was determined at room temperature. Then 100 μl of 1N KOH was added thereto and the tube with its lid being closed was treated at 60° C. for 1 to 2 hours so as to dissolve the pellet. Then, the contents thereof were transferred to a mini-vial. Into the mini-vial containing the supernatant or gland pellet, 4 ml of Atomlite™ was added and then the radioactivity was measured by a liquid scintillation counter. Here, after the radioactivity of the gland pellet was corrected by using a sample in which 20 mM of NaSCN was added so as to cancel the hydrogen ion concentration gradient, the integration ratio of aminopyrine specifically trapped by the gland pellet was calculated. […]

[3] = test system: gastric acid secretion (pylorus-ligated, histamine-stimulated rats); test: VOL, TAO: Acid Secretion Inhibition Test In Vivo; parameters: species or system rat (male Crj:Donryu); conditions: rat, 100 mg/kg, oral; histamine 30 mg/kg s.c.
Protocol: VOL, TAO: Acid Secretion Inhibition Test In Vivo
Inhibitory effect on acid secretion in vivo is confirmed.
Male Crj:Donryu rats (7-week-old) were fasted overnight but allowed free access to water. In each group, 8 to 10 of these rats were used under urethane anesthesia (1.25 g/kg). […] 30 minutes later, the abdomen of each was incised and the pylorus was ligated. 30 minutes after the ligation, 30 mg/kg of histamine dissolved in physiological saline was subcutaneously administered and, 3 hours thereafter, the rat was sacrificed with carbon dioxide. Immediately thereafter, each stomach was removed and the gastric contents were collected and each volume was determined. The total acid output was determined by titration of the gastric juice with 0.1N NaOH.
With respect to the gastric juice volume (VOL) and the total acid output (TAO), the effects obtained when 100 mg/kg of the sample compound had been administered were expressed as their respective inhibitory rates (%) as follows:
each inhibitory rate (%)=(1-(value in sample group/value in control

SMILES	PD: change in gastric mucosal potential difference (5 levels) [1]	inhibition at 10 µM [2] [%]	TAO: total acid output inhibitory rate [3] [%]	VOL: gastric juice volume inhibitory rate [3] [%]
CC(C)=CCC/C(C)=C/COc1ccc(C(=O)NCCc2ccccn2)cc1 [Example 1, 2-[2-(4-geranyloxybenzoylamino)ethyl]pyridine]	5	97	8	4
CC(C)=CCC/C(C)=C/COc1ccc(C(=O)NCCc2ccncc2)cc1 [Example 2, 4-[2-(4-geranyloxybenzoylamino)ethyl]pyridine]	3	99	25	17
CC(C)=CCC/C(C)=C/COc1ccc(C(=O)NCc2ccncc2)cc1 [Example 3, 4-(4-geranyloxybenzoylaminomethyl)pyridine]	3	99		
CC(C)=CCC/C(C)=C/COc1ccc(C(=O)Nc2cccnc2)cc1 [Example 4, 3-(4-geranyloxybenzoylamino)pyridine]	5	44		
CC(C)=CCOc1ccc(OCC=C(C)C)c(C(=O)NCCc2ccncc2)c1 [Example 6, 4-[2-(2,5-diprenyloxybenzoylamino)ethyl]pyridine]	5	100		
CC(C)=CCC/C(C)=C/COc1ccc(C(=O)NCCNc2cccnc2)cc1 [Example 7, 3-[2-(4-geranyloxybenzoylamino)ethylamino]pyridine]	3	100		
COc1ccc(NCCNC(=O)c2ccc(OC/C=C(\C)CCC=C(C)C)cc2)nc1 [Example 8, 2-[2-(4-geranyloxybenzoylamino)ethylamino]-5-methoxypyridine]	5	97	-7	7
CC(C)=CCC/C(C)=C/COc1ccc(C(=O)NCCNc2cc(C)cc(C)n2)cc1 [Example 10, 2,4-dimethyl-6-[2-(4-geranyloxybenzoylamino)ethylamino]pyridine]	3	101		
COc1ccc(SCCNC(=O)c2ccc(OC/C=C(\C)CCC=C(C)C)cc2)nc1 [Example 11, 2-[2-(4-geranyloxybenzoylamino)ethylthio]-5-methoxypyridine]	4	55		
CC(C)=CCC/C(C)=C/COc1ccc(C(=O)NCC(=O)Nc2ccccn2)cc1 [Example 13, 2-[2-(4-geranyloxybenzoylamino)acetylamino]pyridine]	5	31		

Source: patent US5859032A, “Pyridine derivative, anti-ulcer drug, and antibacterial drug” (priority 1996, dated 1999)
